Values quoted from earlier work, collected in patent publication US20260210975A1, “DIAGNOSIS AND TREATMENT OF LONG-COVID” (priority 2022, published 2026).
Like-named read-outs stand apart in the source and are kept apart here.

Target: KCNH2 (Homo sapiens, UniProt Q12809)
Sequence (Q12809 whole entry): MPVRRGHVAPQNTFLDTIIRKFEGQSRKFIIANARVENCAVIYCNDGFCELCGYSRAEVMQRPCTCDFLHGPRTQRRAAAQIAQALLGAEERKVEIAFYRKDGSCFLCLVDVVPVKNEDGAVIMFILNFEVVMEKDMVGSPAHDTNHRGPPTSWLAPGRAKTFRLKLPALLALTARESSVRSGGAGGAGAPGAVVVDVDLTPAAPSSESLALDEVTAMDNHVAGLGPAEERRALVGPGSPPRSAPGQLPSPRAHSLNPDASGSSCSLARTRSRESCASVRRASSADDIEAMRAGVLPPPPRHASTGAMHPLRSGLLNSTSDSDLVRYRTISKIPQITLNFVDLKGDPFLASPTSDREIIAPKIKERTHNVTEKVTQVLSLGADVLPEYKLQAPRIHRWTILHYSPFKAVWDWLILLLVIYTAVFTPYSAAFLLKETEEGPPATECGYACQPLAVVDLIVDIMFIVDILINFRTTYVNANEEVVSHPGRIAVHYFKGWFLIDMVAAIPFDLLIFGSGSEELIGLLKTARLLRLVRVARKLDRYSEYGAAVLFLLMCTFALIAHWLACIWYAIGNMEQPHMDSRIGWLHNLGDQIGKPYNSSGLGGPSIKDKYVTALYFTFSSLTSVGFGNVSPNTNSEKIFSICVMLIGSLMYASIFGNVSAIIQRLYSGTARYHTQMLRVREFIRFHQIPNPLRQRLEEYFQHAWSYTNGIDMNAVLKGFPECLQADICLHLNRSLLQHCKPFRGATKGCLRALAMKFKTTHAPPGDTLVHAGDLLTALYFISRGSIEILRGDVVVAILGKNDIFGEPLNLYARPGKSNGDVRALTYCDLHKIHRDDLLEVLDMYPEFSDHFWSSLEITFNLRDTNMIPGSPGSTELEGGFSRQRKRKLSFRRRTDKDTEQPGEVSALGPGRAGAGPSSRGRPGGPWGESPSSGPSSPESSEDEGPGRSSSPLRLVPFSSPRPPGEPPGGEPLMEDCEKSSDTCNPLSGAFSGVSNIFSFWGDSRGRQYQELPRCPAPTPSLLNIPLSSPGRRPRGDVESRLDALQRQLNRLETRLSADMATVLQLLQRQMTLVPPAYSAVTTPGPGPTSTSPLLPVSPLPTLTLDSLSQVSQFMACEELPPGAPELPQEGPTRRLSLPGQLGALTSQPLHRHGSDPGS

Compound	IC50 [µM]	other results
Cc1cc2c(s1)Nc1ccccc1N=C2N1CCN(C)CC1 [olanzapine]	~6.01	
COc1ccc(CN(CCN(C)C)c2ccccn2)cc1 [pyrilamine]	~6	
C[C@@H]1CN(c2c(F)c(N)c3c(=O)c(C(=O)O)cn(C4CC4)c3c2F)C[C@H](C)N1 [sparfloxacin]	~18	
arsenic trioxide		IKr (listed as weak inhibitor of KCNH2, literature value): approximately 300 μmol/l
prenylamine		IC50 (read-out: IC50 (half maximal inhibitory concentration), KCNH2 inhibitors, literature values): ~0.59 µM
